Experimental data as given in patent publication US20220036967A1, “A METHOD TO DETERMINE AGENTS FOR PERSONALIZED USE” (priority 2018, published 2022).

System: liver metastasis of a breast carcinoma
Assay: treatment of the individual patient chosen according to the test results
Format: in vivo, human
From the text: Biopsy material of a liver metastasis of a breast carcinoma has been obtained from a patient.

| Compound | tumor markers in controls (100 mg) | tumor marker CA15.3 after treatment (before treatment 22,230 units/ml, infused in two-weeks intervals according to standard protocols) | malignant ascites (infused in two-weeks intervals) |
| --- | --- | --- | --- |
| Keytruda: PDL Antibody therapy | did not change tumor markers |  |  |
| CCc1c2c(nc3ccc(OC(=O)N4CCC(N5CCCCC5)CC4)cc13)-c1cc3c(c(=O)n1C2)COC(=O)[C@]3(O)CC [Irinotecan] |  | 1513 units | markedly reduced |
